Source: patent publication US10377647B2, “Systems and methods for use of water with switchable ionic strength” (Queen's University at Kingson, priority 2010, dated 2019)
Like-named read-outs stand apart in the source and are kept apart here. Values belong to the compound of their own block, whether it stands above or below them.

Tests used:
[1] = Miscibility of diamines and triamines with water before and after CO2; format: physicochemical; conditions: 5:1 w/w water:additive; for miscibility with water After addition of CO2: CO2 90 min; for miscibility with water Before addition of CO2: room temperature
Description: A 5:1 w/w solution of water and the liquid additive (total volume 5 mL) were mixed together in a glass vial at room temperature. Whether the mixture formed one or two liquid phases was visually observed. Then CO2 was bubbled through the mixture via a single narrow gauge steel needle at a flow rate of ˜5 mL min^−1 for 90 min. Whether the mixture formed one or two phases was visually observed.

[2] = format: physicochemical
Description: Specifically, a 1:1:1 (v/v/v) mixture of DBU, water and compound was added to a six dram vial containing a magnetic stirrer and fitted with a rubber septa. […] A second narrow gauge steel needle was inserted to allow venting of the gaseous phase.
When the compound was THF, a single phase miscible liquid mixture was observed.

[3] = Solution conductivity before and after CO2; format: physicochemical
Description: The solution conductivities of the materials given below were measured. The mass of each material indicated was weighed into a 150 mL beaker charged with a stir bar along with 100 mL of ultra pure water. The solutions were stirred until visibly dissolved and their conductivity measured. […] All solutions were left to stir overnight to test reproducibility. Solution conductivities were re-recorded giving little change in values. CO2 was bubbled at 10 psi through a fine glass frit tube (to make bubble size as small as possible for greater surface area and therefore faster carbonation) with each solution for 30 minutes. In the case of TBAB and functionalized PMMA, significant amounts of bubbling were observed. Solution conductivities were re-recorded.

[4] = Reversible protonation monitored by conductivity, fritted glass apparatus; format: physicochemical
Description: 1:1 v/v solutions of the various additives and distilled, deionised water were prepared in six dram glass vials and transferred to a fritted glass apparatus which acted as a reaction vessel. The fritted glass apparatus consisted of a long narrow glass tube leading to a fine glass frit having a diameter of approximately 4 cm. The other end of the glass frit was connected to a cylindrical glass tube which held the solution of the additive during contacting with the trigger gas. This apparatus allowed a multiple source of trigger gas bubbles to contact the solution, compared to the single point source of Example 5.
A trigger gas chosen from CO2, air or nitrogen was bubbled through the solution via the glass frit at a flow rate of 110 mL min^−1 as measured by a J&W Scientific ADM 2000 Intelligent Flowmeter (CA, USA). For each conductivity measurement, the solution was transferred back to a six dram vial, cooled to 298 K and measured in triplicate. Conductivity measurements were performed using a Jenway 470 Conductivity Meter (Bibby Scientific, NJ, US) having a cell constant of 1.02 cm^−1.

[5] = Degree of protonation of methylated spermine by carbonated water, 1H NMR; format: physicochemical; conditions: 0.1 M in D2O, room temperature, CO2
Excerpt: (§1) The spectrum was then acquired.
(§2) This process was repeated.

[6] = 4 M solution; cited from earlier work
[7] = Viscosity with and without CO2 (capillary viscometer); format: physicochemical; conditions: 104.6 mg in 10 mL H2O
Description: In order to study the use of switchable water additives in a method and system for viscosity control, a switchable additive or other molecule of interest was placed in a 50 mL round-bottom flask equipped with a 1 cm magnetic stir-bar and placed on a stir-plate. […] The solution was then transferred in to a Technical Glass Products, Inc. C. F. Opage viscometer with either a 100 or 200 capillary tube. The measurements were taken at room temperature (i.e., from about 15-30° C.) and repeated twice. The solution was transferred back into the round bottom flask and CO2 was introduced to the mixture by bubbling for 30 minutes at a flow rate of 80 ml/min. The carbonated solution was then put into the viscometer and the viscosity was measured three times. The viscosity in centistokes (cS) was calculated from the times the solution took to run through the viscometer.

[8] = Switchable osmotic pressure (Zimm-Meyerson osmometer, hydrostatic pressure); format: physicochemical
Description: The switchable osmotic pressure measurements were conducted on a Zimm-Meyerson osmometer using Sterlitech UTC-80LB toray flat sheet membranes. A 0.1% (w/v) switchable polyamine solution in water was made by dissolving 20 mg of the corresponding polyamine in 20 mL deionized H2O. […] The system was closed with a lid and allowed to reach equilibrium overnight. Measurements of the capillary tube and the control capillary were taken. The draw solution was then taken out of the cell and transferred into a graduated cylinder. Both the draw solution and the solution of the outer cell were carbonated by bubbling CO2 with a gas dispersion tube for 1 h. The draw solution was transferred back into the glass cell of the osmometer, the system was closed and held under an atmosphere of CO2. A constant flow of CO2 was maintained using two gauche needles, one of them connected to a CO2 source with a flow rate of 10 ml/min. The heights taken were height differences of the capillary tube connected to the cell and the control capillary tube. Based on these heights the hydrostatic pressure was calculated using the equation: Π=ρhg where Π is the hydrostatic pressure, ρ is the density of the solution, h is the height of the water column and g is the force of gravity. Hydrostatic pressure is taken to be proportional to osmotic pressure of the solution at equilibrium.

[9] = Degree of protonation by CO2 in D2O by 1H NMR; format: physicochemical; conditions: 0.1 M in D2O
Excerpt: as §1, §2

[10] = Zeta potential of suspended clay particles; format: physicochemical
Description: (§3) Clay fines were weighed and placed into individual vials (0.025 g, Ward's Natural Science Establishment). Kaolinite and montmorillonite were used as received, but illite clay was ground into a powder using a mortar and pestle. Solutions containing additives were made with deionized water (18.2 MΩ/cm, Millipore) and 10 mL was added to the clay fines. A suspension was created using a vortex mixer and subsequently dispensed into a folded capillary cell. The zeta potential was measured using a Malvern Zetasizer instrument. The errors reported on the zeta potential values were the standard deviations of the zeta potential peaks measured.
(§4) Unless specified, all carbon dioxide treatments were conducted with the aqueous solutions prior to addition to the clay fines. For applicable measurements, ultra pure carbon dioxide (Supercritical CO2 Chromatographic Grade, Paxair) was bubbled through the solutions using a syringe.

[11] = Zeta potential of suspended clay particles; format: physicochemical; conditions: for Zeta Potential: kaolinite clay
Description: as §3, §4
Another experiment was performed in which CO2 was bubbled through a 1 mM aqueous solution of TMDAB that already contained clay fines (a method referred to as “switching in situ”).

[12] = pH of 5% (w/v) kaolinite suspensions; format: physicochemical
Description: The pH of the following 5% (w/v) kaolinite suspensions were measured: CO2 blank and 1 mM TMDAB and 10 mM TMDAB after CO2-treatment. To investigate the effect of pH on suspension settling behaviour, 5% (w/v) kaolinite suspensions were prepared, and the pH of each suspension was adjusted with HCl and NaOH to match the pH of corresponding treatment conditions. To investigate the effect of ionic strength on suspension settling behaviour, pH was again corrected to match the pH of corresponding treatment conditions, and ionic strength was adjusted with NaCl or ammonium sulphate, assuming all basic sites on the diamine were protonated.

[13] = 1 mM TMDAB + 1 h CO2 + […] N2 at 70° C.

miscibility with water After addition of CO2 [1]: miscible
miscibility with water Before addition of CO2 [1]: miscible
Compound: CN(C)Cc1cc(CN(C)C)cc(CN(C)C)c1 [1,3,5-C6H3(CH2NMe2)3, N,N,N′,N′,N″,N″-1,3,5-benzenetrimethanamine]

miscibility with water After addition of CO2 [1]: miscible
miscibility with water Before addition of CO2 [1]: immiscible
Compound: CN(C)CC1CC(CN(C)C)CC(CN(C)C)C1 (stereo not shown) [CHTDMA, 1,1′,1″-(cyclohexane-1,3,5-triyl)tris(N,N-dimethylmethanamine)]

Compound: C1CCC2=NCCCN2CC1 [DBU, 1,8-diazabicyclo-[5.4.0]-undec-7-ene]
solubility of non-ionic amidine form in water [2]: soluble in water

C after 30 mins CO2 ([3]; CO2 bubbled at 10 psi, 30 minutes): 3360 μS/cm
Initial C ([3]; mass as listed in 100 mL ultra pure water): 398 μS/cm
Compound: CN(C)CCCN [H2N(CH2)3NMe2, 3-dimethylamino-1-propylamine]

conductivity of ionic form solution after N2 flushing ([4]; 1:1 v/v H2O:amine, N2 at 80° C., after 20 minutes): close to zero
Compound: CN(C)CCN(C)CCN(C)CCN(C)C [HMTETA, 1,1,4,7,10,10-hexamethyl triethylenetetramine]

degree of protonation [5]: 93%
Compound: CN(C)CCCN(C)CCCCN(C)CCCN(C)C [MeSpe, N^1,N^1′-(butane-1,4-diyl)bis(N^1,N^3,N^3-trimethylpropane-1,3-diamine)]

Compound: [Cl-].[Cl-].[Mg+2] [MgCl2]
osmotic pressure [6]: 800 atm

Compound: CN(C)C1CCCCC1 [N,N-dimethylcyclohexylamine]
viscosity without CO2 [7]: 1.0 cS
viscosity with CO2 ([7]; CO2 30 minutes): 1.0 cS
hydrostatic pressure without CO2 ([8]; control experiments, height before CO2 treatment): 580 Pa
hydrostatic pressure with CO2 ([8]; nominal 0.1% (w/v), carbonated 1 h, CO2 atmosphere): 1550 Pa
pressure increase ([8]; ratio with CO2 / without CO2): 2.7

miscibility with water After addition of CO2 [1]: miscible
miscibility with water Before addition of CO2 [1]: immiscible
Compound: CCCN(CC)CCCCN(CC)CCC [N,N′-diethyl-N,N′-dipropyl-1,4-diaminobutane]

miscibility with water After addition of CO2 [1]: immiscible
miscibility with water Before addition of CO2 [1]: immiscible
Compound: CCCN(CCC)CCCCN(CCC)CCC [Pr2NCH2CH2CH2CH2NPr2, N,N,N′,N′-tetrapropyl-1,4-diaminobutane]

miscibility with water After addition of CO2 [1]: miscible
miscibility with water Before addition of CO2 [1]: immiscible
Compound: CCN(CC)CCCCN(CC)CC [TEDAB, N,N,N′,N′-tetraethyl-1,4-diaminobutane]

% deprotonated ([9]; 2 hours N2 bubbling at 75° C.): 98%
% protonation ([9]; by 10 minutes CO2): 49%
Compound: OCCN(CCO)CCN(CCO)CCO [THEED, N,N,N′,N′-tetrakis(2-hydroxyethyl) ethylenediamine]

reduction of conductivity ([4]; 1:1 v/v H2O:amine switched with CO2, 90 minutes at 80° C., N2 through glass frit): approximately 95%
Zeta Potential ([10]; 1 mM additive + […] CO2, illite clay): −4.69 ± 4.23 mV
Zeta Potential ([10]; 1 mM additive + […] CO2, montmorillonite clay): −3.20 ± 4.61 mV
Zeta Potential ([10]; 1 mM additive, illite clay): −39.5 ± 6.32 mV
Zeta Potential ([10]; 1 mM additive, montmorillonite clay): −40.2 ± 6.87 mV
Zeta Potential ([10]; 10 mM additive + […] CO2, illite clay): −3.12 ± 7.16 mV
Zeta Potential ([10]; 10 mM additive + […] CO2, montmorillonite clay): 9.07 ± 4.18 mV
Zeta Potential ([10]; 10 mM additive, illite clay): −48.2 ± 7.44 mV
Zeta Potential ([10]; 10 mM additive, montmorillonite clay): −23.6 ± 5.68 mV
Zeta Potential ([10]; 0.8 molal additive + 1 h CO2, illite clay): −4.56 mV
Zeta Potential ([10]; 0.8 molal additive + 1 h CO2, montmorillonite clay): −5.52 mV
Zeta Potential ([10]; 0.8 molal additive, illite clay): −26.0 ± 3.92 mV
Zeta Potential ([10]; 0.8 molal additive, montmorillonite clay): −25.8 ± 4.14 mV
Zeta Potential, Switching externally ([11]; 1 mM TMDAB): −39.6 ± 6.68 mV
Zeta Potential, Switching in situ ([11]; 1 mM TMDAB): −38.9 ± 8.69 mV
Zeta Potential, Switching externally ([11]; 1 mM TMDAB + 1 h CO2): −5.03 ± 4.46 mV
Zeta Potential, Switching in situ ([11]; 1 mM TMDAB + 1 h CO2): −0.31 ± 4.15 mV
Zeta Potential, Switching externally [11, 13]: −25.0 ± 5.84 mV
Zeta Potential, Switching in situ [11, 13]: −32.5 ± 6.38 mV
Zeta Potential ([11]; 1 mM additive + […] CO2): −5.03 ± 4.46 mV
Zeta Potential ([11]; 1 mM additive): −39.6 ± 6.68 mV
Zeta Potential ([11]; 10 mM additive + […] CO2): −3.35 ± 8.49 mV
Zeta Potential ([11]; 10 mM additive): −50.7 ± 13.1 mV
Zeta Potential ([11]; 0.8 molal additive + 1 h CO2): 2.29 mV
Zeta Potential ([11]; 0.8 molal additive): −17.4 ± 3.92 mV
pH ([12]; kaolinite Sample 2, 1 mM TMDAB): 7.13
pH ([12]; kaolinite Sample 2, 1 mM TMDAB + CO2): 4.75
pH ([12]; kaolinite Sample 2, 10 mM TMDAB): 10.41
pH ([12]; kaolinite Sample 2, 10 mM TMDAB + CO2): 5.95
Compound: CN(C)CCCCN(C)C [TMDAB, N,N,N′,N′-tetramethyl-1,4-diaminobutane]

Compound: CCCC[N+](CCCC)(CCCC)CCCC.[Br-] [[^nBu4N]Br, Tetra-n-butylammonium bromide]
C after 30 mins CO2 [3]: 1781 μS/cm
Initial C [3]: 1892 μS/cm

Compound: OC[C@H]1O[C@@](CO)(O[C@H]2O[C@H](CO)[C@@H](O)[C@H](O)[C@H]2O)[C@@H](O)[C@@H]1O [sucrose]
osmotic pressure [6]: about 130 atm
